From patent US4956294A, “Culture of Streptoverticillium synroense for producing an antibacterial” (Merck & Co., Inc., priority 1989, dated 1990)
Converted amounts (≈) assume the structure as drawn. “Also recorded” adds a separate entry of the source.

Experiments:
[1] = system: Bacillus sp. 633; assay: Inhibition zone, agar plate; type: cell-based; conditions: 15λ, read-out: Inhibition Zone Diameter
Protocol: (§1) A crystalline sample of L-654,040 was dissolved in distilled water. Aliquots of 15λ were deposited on the surface of each seeded nutrient agar susceptibility test plate, followed by overnight incubation Plates were then measured for activity by determining the inhibition zone diameter under the previously placed 15λ aliquot.

[2] = system: Candida albicans 992; assay: Inhibition zone, agar plate; type: cell-based; conditions: 15λ, read-out: Inhibition Zone Diameter
Protocol: as §1

[3] = system: Pseudomonas aeruginosa 979; assay: Inhibition zone, agar plate; type: cell-based; conditions: 15λ, read-out: Inhibition Zone Diameter
[4] = system: Staphylococcus aureus 108 (6538P); assay: Inhibition zone, agar plate; type: cell-based; conditions: 15λ, read-out: Inhibition Zone Diameter
[5] = system: Bacillus subtilis 964 (6633); assay: Inhibition zone, agar plate; type: cell-based; conditions: 15λ, read-out: Inhibition Zone Diameter
[6] = system: Vibrio percolans 1272 (8461); assay: Inhibition zone, agar plate; type: cell-based; conditions: Comamonas terrigena, 15λ, read-out: Inhibition Zone Diameter
[7] = system: Proteus vulgaris 838 (21100); assay: Inhibition zone, agar plate; type: cell-based; conditions: 15λ, read-out: Inhibition Zone Diameter
[8] = system: Escherichia coli 1418; assay: Inhibition zone, agar plate; type: cell-based; conditions: 15λ, read-out: Inhibition Zone Diameter
[9] = system: Aerobacter aerogenes 835; assay: Inhibition zone, agar plate; type: cell-based; conditions: Klebsiella aerogenes, 15λ, read-out: Inhibition Zone Diameter
[10] = system: Corynebacterium pseudodiph. 261 (9742); assay: Inhibition zone, agar plate; type: cell-based; conditions: read-out: Inhibition Zone Diameter
[11] = system: Streptococcus faecium 2820; assay: Inhibition zone, agar plate; type: cell-based; conditions: Enterococcus faecium, 15λ, read-out: Inhibition Zone Diameter
[12] = system: Propionibacterium acnes 2249; assay: Anaerobic agar dilution, Wilkens-Chalgren agar; type: cell-based; conditions: Cutibacterium acnes, 2249, 48 h
[13] = system: C. perfringens 2237; assay: microbe, parasite or virus in culture; type: cell-based; conditions: Clostridium perfringens, 2237, 48 h
[14] = system: C. perfringens 3509; assay: microbe, parasite or virus in culture; type: cell-based; conditions: Clostridium perfringens, 3509, 48 h
[15] = system: C. perfringens 3510; assay: microbe, parasite or virus in culture; type: cell-based; conditions: Clostridium perfringens, 3510, 48 h
[16] = system: C. perfringens 3511; assay: microbe, parasite or virus in culture; type: cell-based; conditions: Clostridium perfringens, 3511, 48 h
[17] = system: C. perfringens 3512; assay: microbe, parasite or virus in culture; type: cell-based; conditions: Clostridium perfringens, 3512, 48 h
[18] = system: C. ramosum 4272; assay: Anaerobic agar dilution, Wilkens-Chalgren agar; type: cell-based; conditions: Thomasclavelia ramosa, 4272, 48 h
[19] = system: C. difficile Clind^r 4273; assay: Anaerobic agar dilution, Wilkens-Chalgren agar; type: cell-based; conditions: Clostridioides difficile, 48 h
[20] = system: Bifidobacterium dentium Fox^r 4427; assay: Anaerobic agar dilution, Wilkens-Chalgren agar; type: cell-based; conditions: 48 h
[21] = system: Bacteroides fragilis Met^r . Pen^r 4324; assay: Anaerobic agar dilution, Wilkens-Chalgren agar; type: cell-based; conditions: 48 h
[22] = system: B. fragilis Clind^r, Fox^r, Tet^r 4360; assay: Anaerobic agar dilution, Wilkens-Chalgren agar; type: cell-based; conditions: Bacteroides fragilis, 48 h
[23] = system: B. fragilis NCCLS control strain 4419; assay: Anaerobic agar dilution, Wilkens-Chalgren agar; type: cell-based; conditions: Bacteroides fragilis, 48 h
[24] = system: B. distasonis Pen^r, Fox^r, Clind^r 4361; assay: Anaerobic agar dilution, Wilkens-Chalgren agar; type: cell-based; conditions: Parabacteroides distasonis, 48 h
[25] = system: B. ovatus Pen^r 3248; assay: Anaerobic agar dilution, Wilkens-Chalgren agar; type: cell-based; conditions: Bacteroides ovatus, 48 h
[26] = system: Fusobacterium mortiferum Fox^r 3345; assay: Anaerobic agar dilution, Wilkens-Chalgren agar; type: cell-based; conditions: 48 h
[27] = system: Veillonella alcalescens 1952; assay: Anaerobic agar dilution, Wilkens-Chalgren agar; type: cell-based; conditions: Veillonella parvula, 1952, 48 h
[28] = Solubility in water
[29] = system: E. coli TEM 2+ 4351; assay: Agar dilution, trypticase soy agar; conditions: Escherichia coli, 20 h
[30] = system: Ent. cloacae P99- 2647; assay: Agar dilution, trypticase soy agar; conditions: Enterobacter cloacae, P992647, 20 h
[31] = system: Staph. aureus 2865; assay: Agar dilution, antagonist-free medium
[32] = system: E. coli DC2 4353; assay: Agar dilution, antagonist-free medium
[33] = system: E. coli 2891; assay: Agar dilution, antagonist-free medium; conditions: Escherichia coli, 2891, 20 h
[34] = system: Prot. vulgaris 2829; assay: Agar dilution, antagonist-free medium; conditions: Proteus vulgaris, 2829, 20 h
[35] = system: Bordetella bronchiseptica (3771); assay: Protection and survival of infected mice; conditions: intraperitoneal
[36] = system: Pasteurella; assay: Combined therapy with erythromycin in infected mice; conditions: L-654,040 combined with erythromycin, Pasteurella infection

C[C@H](CNC(=O)[C@H]1N=C(c2cccc(O)c2O)O[C@@H]1C)C(=O)N[C@@H]1CCCN(O)C1=O [L-654,040, 2-(2,3-dihydroxyphenyl)-4,5-dihydro-N-[3-[(1-hydroxy-2-oxo-3(R)-piperidinyl)-amino]-2(R)-methyl-3-oxopropyl]-5R-methyl-4S-oxazolecarboxamide]
zone of inhibition at 500 µg/mL ([1]; 0.5 mg/ml in distilled H2O): 23 mm
zone of inhibition at 2000 µg/mL ([1]; 2 mg/ml in distilled H2O): 28 mm
zone of inhibition at 500 µg/mL ([2]; 0.5 mg/ml in distilled H2O): 16 mm
zone of inhibition at 2000 µg/mL ([2]; 2 mg/ml in distilled H2O): 24 mm
zone of inhibition at 500 µg/mL ([3]; 0.5 mg/ml in distilled H2O): 0 mm
zone of inhibition at 2000 µg/mL ([3]; 2 mg/ml in distilled H2O): 0 mm
zone of inhibition at 500 µg/mL ([4]; 0.5 mg/ml in distilled H2O): 0 mm
zone of inhibition at 2000 µg/mL ([4]; 2 mg/ml in distilled H2O): 18 mm
zone of inhibition at 500 µg/mL ([5]; 0.5 mg/ml in distilled H2O): 12 mm
zone of inhibition at 2000 µg/mL ([5]; 2 mg/ml in distilled H2O): 14 mm
zone of inhibition at 500 µg/mL ([6]; 0.5 mg/ml in distilled H2O): 18 mm
zone of inhibition at 2000 µg/mL ([6]; 2 mg/ml in distilled H2O): 25 mm
zone of inhibition at 500 µg/mL ([7]; 0.5 mg/ml in distilled H2O): 18 mm
zone of inhibition at 2000 µg/mL ([7]; 2 mg/ml in distilled H2O): 31 mm
zone of inhibition at 500 µg/mL ([8]; 0.5 mg/ml in distilled H2O): 0 mm
zone of inhibition at 2000 µg/mL ([8]; 2 mg/ml in distilled H2O): 13 mm
zone of inhibition at 500 µg/mL ([9]; 0.5 mg/ml in distilled H2O): 0 mm
zone of inhibition at 2000 µg/mL ([9]; 2 mg/ml in distilled H2O): 0 mm
zone of inhibition at 2000 µg/mL ([10]; 2 mg/ml in distilled H2O, 15λ): 33 mm
zone of inhibition at 500 µg/mL [10]: 28 mm
zone of inhibition at 500 µg/mL ([11]; 0.5 mg/ml in distilled H2O): 0 mm
zone of inhibition at 2000 µg/mL ([11]; 2 mg/ml in distilled H2O): 0 mm
MIC [12]: 128 µg/mL (≈ 295 µM)
MIC [13]: 128 µg/mL (≈ 295 µM)
MIC [14]: 64 µg/mL (≈ 147 µM)
MIC [15]: 128 µg/mL (≈ 295 µM)
MIC [16]: 64 µg/mL (≈ 147 µM)
MIC [17]: 64 µg/mL (≈ 147 µM)
MIC [18]: 64 µg/mL (≈ 147 µM)
MIC [19]: 128 µg/mL (≈ 295 µM)
MIC [20]: > 128 µg/mL
MIC [21]: 128 µg/mL (≈ 295 µM)
MIC [22]: > 128 µg/mL
MIC [23]: > 128 µg/mL
MIC [24]: > 128 µg/mL
MIC [25]: > 128 µg/mL
MIC [26]: > 128 µg/mL
MIC [27]: > 128 µg/mL
solubility ([28]; boiling water): ~10000 µg/mL (≈ 23000 µM)
solubility in water ([28]; water, for dosing solutions): limited solubility
MIC [29]: > 128 µg/mL
MIC [30]: > 128 µg/mL
sensitivity of strain ([31]; Staphylococcus aureus 2865): sensitive
MIC ([31]; Staphylococcus aureus, 2865, 20 h): 32 µg/mL (≈ 73.7 µM)
relative activity of parent and acetyl derivative ([32]; E. coli permeability mutant): equal activity
sensitivity of strain ([32]; E. coli permeability mutant): sensitive
MIC ([32]; Escherichia coli, DC24353, 20 h): 32 µg/mL (≈ 73.7 µM)
MIC [33]: > 256 µg/mL
MIC [34]: > 256 µg/mL
protection against infection [35]: did not protect
survival time ([35]; 160 mg/kg x 2, significant only in Pasteurella-infected animals): prolongation of survival time was observed; also recorded: did prolong the survival time
efficacy of combined therapy versus erythromycin alone [36]: slightly more effective than erythromycin alone but not to a degree considered to be synergistic
